In ChEMBL document CHEMBL5724914, “Linking interpersonal differences in gut microbiota composition and drug biotransformation activity” (2024):

Tests used:
[1] = The drug is tested on Z-029 corresponding to rat gut metagenome with ENA study accession number: PRJEB37062 and ENA sample accession number: ERS12561828 for biotransformation under anaerobic condition. The drug concentrations were measured over 9 timepoints collected between 0 and 24 hours of incubation by liquid-chromatography-coupled mass spectrometry (LC–MS); conditions: 2 µM
[2] = The drug is tested on Z-028 corresponding to mouse gut metagenome with ENA study accession number: PRJEB37062 and ENA sample accession number: ERS12561827 for biotransformation under anaerobic condition. The drug concentrations were measured over 9 timepoints collected between 0 and 24 hours of incubation by liquid-chromatography-coupled mass spectrometry (LC–MS); conditions: 2 µM
[3] = The drug is tested on Z-024 corresponding to pig gut metagenome with ENA study accession number: PRJEB37062 and ENA sample accession number: ERS12561823 for biotransformation under anaerobic condition. The drug concentrations were measured over 9 timepoints collected between 0 and 24 hours of incubation by liquid-chromatography-coupled mass spectrometry (LC–MS); conditions: 2 µM
[4] = The drug is tested on Z-020 corresponding to rabbit gut metagenome with ENA study accession number: PRJEB37062 and ENA sample accession number: ERS12561819 for biotransformation under anaerobic condition. The drug concentrations were measured over 9 timepoints collected between 0 and 24 hours of incubation by liquid-chromatography-coupled mass spectrometry (LC–MS); conditions: 2 µM
[5] = The drug is tested on Z-018 corresponding to pig gut metagenome with ENA study accession number: PRJEB37062 and ENA sample accession number: ERS12561817 for biotransformation under anaerobic condition. The drug concentrations were measured over 9 timepoints collected between 0 and 24 hours of incubation by liquid-chromatography-coupled mass spectrometry (LC–MS); conditions: 2 µM
[6] = The drug is tested on Z-012 corresponding to metagenome with ENA study accession number: PRJEB37062 and ENA sample accession number: ERS12561812 for biotransformation under anaerobic condition. The drug concentrations were measured over 9 timepoints collected between 0 and 24 hours of incubation by liquid-chromatography-coupled mass spectrometry (LC–MS); conditions: 2 µM
[7] = The drug is tested on Z-011 corresponding to mouse gut metagenome with ENA study accession number: PRJEB37062 and ENA sample accession number: ERS12561811 for biotransformation under anaerobic condition. The drug concentrations were measured over 9 timepoints collected between 0 and 24 hours of incubation by liquid-chromatography-coupled mass spectrometry (LC–MS); conditions: 2 µM
[8] = The drug is tested on Z-001 corresponding to mouse gut metagenome with ENA study accession number: PRJEB37062 and ENA sample accession number: ERS12561801 for biotransformation under anaerobic condition. The drug concentrations were measured over 9 timepoints collected between 0 and 24 hours of incubation by liquid-chromatography-coupled mass spectrometry (LC–MS); conditions: 2 µM
[9] = The drug is tested on WLS-220 corresponding to human gut metagenome with ENA study accession number: PRJEB37062 and ENA sample accession number: ERS12561769 for biotransformation under anaerobic condition. The drug concentrations were measured over 9 timepoints collected between 0 and 24 hours of incubation by liquid-chromatography-coupled mass spectrometry (LC–MS); conditions: 2 µM
[10] = The drug is tested on WLS-082 corresponding to human gut metagenome with ENA study accession number: PRJEB37062 and ENA sample accession number: ERS12561751 for biotransformation under anaerobic condition. The drug concentrations were measured over 9 timepoints collected between 0 and 24 hours of incubation by liquid-chromatography-coupled mass spectrometry (LC–MS); conditions: 2 µM
[11] = The drug is tested on WLS-069 corresponding to human gut metagenome with ENA study accession number: PRJEB37062 and ENA sample accession number: ERS12561748 for biotransformation under anaerobic condition. The drug concentrations were measured over 9 timepoints collected between 0 and 24 hours of incubation by liquid-chromatography-coupled mass spectrometry (LC–MS); conditions: 2 µM
[12] = The drug is tested on WLS-052 corresponding to human gut metagenome with ENA study accession number: PRJEB37062 and ENA sample accession number: ERS12561747 for biotransformation under anaerobic condition. The drug concentrations were measured over 9 timepoints collected between 0 and 24 hours of incubation by liquid-chromatography-coupled mass spectrometry (LC–MS); conditions: 2 µM
[13] = The drug is tested on WLS-010 corresponding to human gut metagenome with ENA study accession number: PRJEB37062 and ENA sample accession number: ERS12561743 for biotransformation under anaerobic condition. The drug concentrations were measured over 9 timepoints collected between 0 and 24 hours of incubation by liquid-chromatography-coupled mass spectrometry (LC–MS); conditions: 2 µM
[14] = human gut metagenome, 24 h, 2 µM
[15] = human gut metagenome, 24 h, 2 µM; remark: listed apart in the source
[16] = human gut metagenome, 24 h, 2 µM; remark: listed apart in the source
[17] = human gut metagenome, 24 h, 2 µM; remark: listed apart in the source
[18] = human gut metagenome, 24 h, 2 µM; remark: listed apart in the source
[19] = human gut metagenome, 24 h, 2 µM; remark: listed apart in the source
[20] = human gut metagenome, 24 h, 2 µM; remark: listed apart in the source
Also: call rule not given here.

| SMILES | Bacterial Biotransformation [1] | Bacterial Biotransformation [2] | Bacterial Biotransformation [3] | Bacterial Biotransformation [4] | Bacterial Biotransformation [5] | Bacterial Biotransformation [6] | Bacterial Biotransformation [7] | Bacterial Biotransformation [8] | Bacterial Biotransformation [9] | Bacterial Biotransformation [10] | Bacterial Biotransformation [11] | Bacterial Biotransformation [12] | Bacterial Biotransformation [13] | Bacterial Biotransformation [14] | Bacterial Biotransformation [15] | Bacterial Biotransformation [16] | Bacterial Biotransformation [17] | Bacterial Biotransformation [18] | Bacterial Biotransformation [19] | Bacterial Biotransformation [20] |
| --- | --- | --- | --- | --- | --- | --- | --- | --- | --- | --- | --- | --- | --- | --- | --- | --- | --- | --- | --- | --- |
| Nc1c2c(nc3ccccc13)CCCC2 [TACRINE] | Compound NOT metabolized | Compound NOT metabolized | Compound NOT metabolized | Compound NOT metabolized | Compound NOT metabolized | Compound NOT metabolized | Compound NOT metabolized | Compound NOT metabolized | Compound NOT metabolized | Compound NOT metabolized | Compound metabolized | Compound NOT metabolized | Compound NOT metabolized | Compound NOT metabolized | Compound metabolized | Compound metabolized | Compound metabolized | Compound NOT metabolized | Compound metabolized | Compound NOT metabolized |
| Cc1ccc(S(=O)(=O)NC(=O)NN2CCCCCC2)cc1 [TOLAZAMIDE] | Compound NOT metabolized | Compound metabolized | Compound metabolized | Compound NOT metabolized | Compound metabolized | Compound metabolized | Compound NOT metabolized | Compound metabolized | Compound metabolized | Compound metabolized | Compound metabolized | Compound metabolized | Compound metabolized | Compound metabolized | Compound metabolized | Compound metabolized | Compound metabolized | Compound metabolized | Compound metabolized | Compound NOT metabolized |
| CCOC(=O)[C@H](CCc1ccccc1)N[C@@H](C)C(=O)N1[C@H](C(=O)O)C[C@H]2CCCC[C@@H]21 [TRANDOLAPRIL] | Compound NOT metabolized | Compound NOT metabolized | Compound metabolized | Compound metabolized | Compound metabolized | Compound NOT metabolized | Compound NOT metabolized | Compound NOT metabolized | Compound metabolized | Compound metabolized | Compound metabolized | Compound metabolized | Compound metabolized | Compound metabolized | Compound metabolized | Compound metabolized | Compound metabolized | Compound metabolized | Compound metabolized | Compound metabolized |
| CC(CN(C)C)CN1c2ccccc2CCc2ccccc21.O=C(O)/C=C\C(=O)O (stereo not given) [TRIMIPRAMINE MALEATE] | Compound NOT metabolized | Compound NOT metabolized | Compound metabolized | Compound NOT metabolized | Compound NOT metabolized | Compound metabolized | Compound NOT metabolized | Compound NOT metabolized | Compound metabolized | Compound metabolized | Compound metabolized | Compound NOT metabolized | Compound metabolized | Compound NOT metabolized | Compound NOT metabolized | Compound metabolized | Compound metabolized | Compound metabolized | Compound metabolized | Compound NOT metabolized |
| CC(=O)CC(c1ccccc1)c1c(O)c2ccccc2oc1=O (stereo not given) [WARFARIN] | Compound NOT metabolized | Compound metabolized | Compound metabolized | Compound metabolized | Compound metabolized | Compound metabolized | Compound NOT metabolized | Compound NOT metabolized | Compound metabolized | Compound metabolized | Compound metabolized | Compound metabolized | Compound metabolized | Compound metabolized | Compound metabolized | Compound metabolized | Compound metabolized | Compound metabolized | Compound metabolized | Compound metabolized |
